According to patent publication US20110189204A1, “Treatment of Disease with Proteasone Inhibitors” (priority 2009, published 2011):

Key:
[1] = Plasma pharmacokinetics, daily (5/7 days) subcutaneous dosing (TOX8394)
[2] = test system: 20S proteasome (chymotryptic activity) in whole blood; test: 20S proteasome inhibition in whole blood, daily (5/7 days) dosing (TOX8394); type: in vivo, Cynomolgus monkeys
Protocol: (§1) For each study, the 20S proteasome activity in whole blood was determined, as described in Lightcap, Clin. Chem., 46:673 (2000). The chymotryptic activity was assayed by measuring the rate at which the proteasome hydrolyzed an amide bond in a small fluorescence tagged polypeptide substrate. The specific activity (Spa) was normalized to the amount of protein present in the lysate.

[3] = Toxicological screening, bi-weekly/weekly subcutaneous dosing (TOX7345)
Protocol: (§2) For each study group, the following toxicological screening was performed: mortality, body weight, food consumption, clinical observations, ophthalmology, electrocardiography, hematology, serum biochemistry, urinalysis, injection site evaluations (erythema and edema), neurological examinations, histology, and peripheral neuropathy.

[4] = in vivo; details: both, cynomolgus monkey, plasma
Protocol: (§3) For bi-weekly dosing treatment (TOX 7345), a group of 3 male and 3 female Cynomolgus monkeys were dosed for 4 cycles.
(§4) The test substance and vehicle were freshly prepared on the day of use.
(§5) For each study, the values of the time to maximum plasma concentration (Tmax), the maximum plasma concentration (Cmax) were determined by visual inspection of the data. The area-under-the plasma-concentration-time curve (AUC) was estimated by the linear trapezoidal rule. Plasma samples were analyzed using a validated LC/MS/MS method with a lower quantification limit of about 0.5 ng/ml.

[5] = in vivo; details: both, cynomolgus monkey, plasma; remark: listed apart in the source
[6] = in vivo
Protocol: as §2

[7] = Plasma pharmacokinetics, bi-weekly/weekly subcutaneous dosing (TOX7345)
Protocol: as §3, §4, §5

[8] = test system: 20S proteasome (chymotryptic activity) in whole blood; test: 20S proteasome inhibition in whole blood, bi-weekly/weekly dosing (TOX7345); type: in vivo, Cynomolgus monkeys
Protocol: as §1

[9] = day 3, 0.0166 mg/kg sc daily (5/7 days)
[10] = day 3, 0.0333 mg/kg sc daily (5/7 days)
[11] = day 3, 0.05 mg/kg sc daily (5/7 days)
[12] = day 54, 0.0166 mg/kg sc daily (5/7 days)
[13] = day 54, 0.0333 mg/kg sc daily (5/7 days)
[14] = day 54, 0.05 mg/kg sc daily (5/7 days)
[15] = both, cynomolgus monkey, in vivo
[16] = cynomolgus monkey, in vivo, 0.1 mg/kg
[17] = day 1, 0.075 mg/kg sc bi-weekly
[18] = day 32, 0.075 mg/kg sc bi-weekly
[19] = day 74, 0.075 mg/kg sc bi-weekly

## CC(C)C[C@H](NC(=O)[C@H](Cc1ccccc1)NC(=O)c1cnccn1)B(O)O [bortezomib]
[1]; [9]
  Tmax: 0.138 (0.05) h
[1]; [10]
  Tmax: 0.165 (0.07) h
[1]; [11]
  Tmax: 0.203 (0.07) h
[1]; [12]
  Tmax: 0.161 (0.07) h
[1]; [13]
  Tmax: 0.184 (0.07) h
[1]; [14]
  Tmax: 0.185 (0.07) h
[2]; 0.05 mg/kg daily vs 0.1 mg/kg bi-weekly
  cumulative AUE (over 1 week), daily schedule higher than bi-weekly: about 50%
[2]; about 0.6 mg/m^2 once daily
  AUE0-24 h: 900 %. h
[2]; activity determined on various days before dosing
  remaining 20S proteasome inhibition at the end of each 2-day drug-holiday: no indication for remaining 20S proteasome inhibition
[2]; daily schedule, 0.05 mg/kg
  highest inhibition (Emax): 73%
[2]; daily schedule, about 0.6 mg/m^2
  cumulative weekly AUE: 4500 %. h
[2]; [9]
  AUE0-24 h: 603 (77) % Inhibition · time
  Emax (% proteasome inhibition): 48%
  Tmax (time of occurrence of Emax): 30 min
[2]; [10]
  AUE0-24 h: 685 (32) % Inhibition · time
  Emax (% proteasome inhibition): 58%
  Tmax (time of occurrence of Emax): 30 min
[2]; [11]
  AUE0-24 h: 802 (67) % Inhibition · time
  Emax (% proteasome inhibition): 65%
  Tmax (time of occurrence of Emax): 30 min
[2]; [12]
  AUE0-24 h: 481 (103) % Inhibition · time
  Emax (% proteasome inhibition): 38%
  Tmax (time of occurrence of Emax): 30 min
[2]; [13]
  AUE0-24 h: 895 (125) % Inhibition · time
  Emax (% proteasome inhibition): 62%
  Tmax (time of occurrence of Emax): 30 min
[2]; [14]
  AUE0-24 h: 1039 (114) % Inhibition · time
  Emax (% proteasome inhibition): 73%
  Tmax (time of occurrence of Emax): 30 min
[2]; on average, sc administration
  time of maximal proteasome inhibition after dosing: about 0.5 h
[3]; 0.166 mg/kg weekly, considered treatment related
  Mortality: 1 F (day 72), 1 M (day 79), at
[3]; [15]
  MTD at 4 cycles: ~0.1 mg/kg
  Peripheral neuropathy: focal axonal neurofiber degeneration, spinal cord (dorsal root ganglia): 0.1/0.166 (weekly) mg/kg minimal
[3]; cynomolgus monkey, in vivo
  Body weight: No body weight loss at other dose
  Electrocardiography: No abnormalities found at any
  Haemathology: No hematological changes related
  Histology: PANCREAS: PANCREAS: no findings
  Histology: PROSTATE: PROSTATE: no findings
  Ophthalmology: No treatment related changes
  Urinalysis: No treatment related findings
[3]; [16]
  Histology: LYMPH NODES: LYMPH NODES: lymphoid atrophy
  Histology: SPLEEN: SPLEEN: pulp, lymphoid atrophy
[3]; other dose levels (0.075, 0.1 mg/kg bi-weekly)
  Mortality: No mortality at other dose levels
[4]; Cynomolgus, sc, 0.166 mg/kg
  AUC(0-t): 229 ng·h/mL
  Cmax: 158 ng/mL
  Tmax: 13.8 min
[4]; Cynomolgus, subcutaneous
  Tmax: ≤ 15 min
[4]; sc, 0.075 mg/kg
  Cmax: 61.1 ng/mL
[4]; sc, 0.1 mg/kg
  Cmax: 86.2 ng/mL
  Tmax: 7.02 min
[4]; sc, 0.166 mg/kg
  AUC(0-t): 160 ng·h/mL
  Cmax: 144 ng/mL
  Tmax: 7.02 min
[5]; Cynomolgus, subcutaneous
  Tmax: ≤ 15 min
[5]; sc, 0.0166 mg/kg
  Cmax: 10.7 ng/mL
  Tmax: 8.88 min
[5]; sc, 0.0333 mg/kg
  Cmax: 23.7 ng/mL
  Tmax: 6.96 min
[5]; sc, 0.05 mg/kg
  Cmax: 34.2 ng/mL
  Tmax: 12 min
[6]; 0.05 mg/kg/dose, all monkeys
  Kidney weights: greater than kidney weights of control monkeys
[6]; 0.05 mg/kg/dose, male and female
  Injection site histopathological finding: fibroplasia
[6]; 0.0333-0.05 mg/kg
  Peripheral neuropathy: peripheral (sciatic, tibial and peroneal nerves) degeneration: peroneal nerves): minimal
  Peripheral neuropathy: spinal cord dorsal funiculi (cervical & lumbar): & lumbar) minimal degeneration
[6]; 0.0333 or 0.05 mg/kg
  Clinical observations: faeces: Abnormal faeces (soft, liquid, 0.0333
[6]; [15]
  MTD at 8 weeks: ~0.05 mg/kg
[6]; cynomolgus monkey, in vivo
  Body weight: No body weight loss at any other
  ECG, ophthalmology, rectal temperature or blood pressure: No bortezomib-related changes
  Electrocardiography: No abnormalities found at any dose
  Fibrinogen concentrations: fibrinogen concentrations increased
  Gross abnormalities at necropsy: no gross abnormalities
  Haemathology: mean platelet volume: mean platelet volume increased
  Haemathology: platelet numbers: Platelet numbers decreased
  Histology: BONE MARROW: BONE MARROW: no findings
  Histology: LYMPH NODES: LYMPH NODES: no findings
  Histology: SPLEEN: SPLEEN: no findings
  Ophthalmology: No treatment related changes
  Urinalysis: No treatment related findings
  Urinalysis parameters creatinine, inorganic phosphorus, ketones, protein and sodium: Increases
[6]; cynomolgus monkey, in vivo, sc
  Tolerability: well tolerated
[6]; multiple days, one male each at 0.0166 and 0.0333, one female at 0.05 mg/kg/dose
  Stool: Soft stool
[6]; nine male and female monkeys in the 0.0333 and 0.05 mg/kg/dose groups
  Body weight lost: 3-12%
[6]; repeated five times weekly sc administration for 8 weeks
  No Observed Adverse Effect Level (NOAEL): cannot be identified
[7]; [17]
  AUC0-72 h: 36.7 ng·h/mL
[7]; day 1, 0.1 mg/kg sc bi-weekly
  AUC0-72 h: 77.5 ng·h/mL
[7]; [18]
  AUC0-72 h: 110 ng·h/mL
  Cmax: 58.8 ng/mL
  Tmax: 15 min
[7]; day 32, 0.1 mg/kg sc bi-weekly
  AUC0-72 h: 227 ng·h/mL
  Tmax: 7.14 min
[7]; day 50, 0.166 mg/kg sc weekly
  AUC0-72 h: 205 ng·h/mL
  Cmax: 168 ng/mL
[7]; [19]
  AUC0-72 h: 122 ng·h/mL
  Cmax: 70.1 ng/mL
  Tmax: 8.34 min
[7]; day 74, 0.1 mg/kg sc bi-weekly
  AUC0-72 h: 211 ng·h/mL
  Cmax: 113 ng/mL
  Tmax: 9.66 min
[8]; about 1.2 mg/m^2 bi-weekly
  AUE0-72h: 1500 %. h
[8]; bi-weekly regimen, 0.1 mg/kg
  strongest inhibition (Emax): 74%
[8]; bi-weekly schedule, about 1.2 mg/m^2
  cumulative weekly AUE: 3000 %. h
[8]; [17]
  AUE0-24 h: 585 (87) % Inhibition · time
  Emax (% proteasome inhibition): 63%
  Tmax (time of occurrence of Emax): 30 min
[8]; day 1, 0.1 mg/kg sc bi-weekly
  AUE0-24 h: 926 (99) % Inhibition · time
  Emax (% proteasome inhibition): 74%
  Tmax (time of occurrence of Emax): 30 min
[8]; day 1, 0.166 mg/kg sc weekly
  AUE0-24 h: 931 (124) % Inhibition · time
  Emax (% proteasome inhibition): 78%
  Tmax (time of occurrence of Emax): 60 min
[8]; [18]
  AUE0-24 h: 1086 (158) % Inhibition · time
  Emax (% proteasome inhibition): 68%
  Tmax (time of occurrence of Emax): 30 min
[8]; day 32, 0.1 mg/kg sc bi-weekly
  AUE0-24 h: 1454 (201) % Inhibition · time
  Emax (% proteasome inhibition): 71%
  Tmax (time of occurrence of Emax): 30 min
[8]; day 50, 0.166 mg/kg sc weekly
  AUE0-24 h: 2152 (222) % Inhibition · time
  Emax (% proteasome inhibition): 78%
  Tmax (time of occurrence of Emax): 30 min
[8]; [19]
  AUE0-24 h: 1111 (116) % Inhibition · time
  Emax (% proteasome inhibition): 67%
  Tmax (time of occurrence of Emax): 30 min
[8]; day 74, 0.1 mg/kg sc bi-weekly
  AUE0-24 h: 1584 (210) % Inhibition · time
  Emax (% proteasome inhibition): 72%
  Tmax (time of occurrence of Emax): 30 min
[8]; day 78, 0.166 mg/kg sc weekly
  AUE0-24 h: 1468 (219) % Inhibition · time
  Emax (% proteasome inhibition): 77%
  Tmax (time of occurrence of Emax): 60 min
[8]; on average, sc administration
  time of maximal proteasome inhibition after dosing: about 0.5 h
[8]; weekly 0.166 mg/kg dose group
  maximal inhibition: 78%
